Data taken from patent publication US9751851B2, “Molecules and compositions that inhibit gram negative bacteria and their uses” (THE TRUSTEES OF PRINCETON UNIVERSITY, priority 2013, dated 2017).

Experiments:
LasR = target: T1, LasR (Pseudomonas aeruginosa, UniProt P25084); assay: LasR-GFP assay (rsaL-gfp reporter in recombinant E. coli); format: cell-based, P. aeruginosa
T1 construct: expressed in transfected cells; host or cells: E. coli BL21-Gold (DE3) carrying pET23b-lasR
Procedure: (§1) Methods. The LasR-GFP assays were performed in E. coli strain BL21 DE3 Gold (Agilent) carrying pET23b (Novagen) containing lasR (maintained with 100 μg/mL ampicillin) and carrying plasmid pEVS141 (31) containing the rsaL promoter driving expression of gfp (maintained with […] of kanamycin.) The RhlR-GFP assays were performed in E. coli strain BL21 DE3 Gold (Agilent) carrying pET23b (Novagen) containing rhlR (maintained with 100 μg/mL ampicillin) and carrying plasmid pEVS141 containing the rhlA promoter driving expression of gfp (maintained with 50 μg/mL of kanamycin.) These E. coli strains were grown overnight and subcultured into fresh medium with appropriate antibiotics at a 1:100 dilution and grown shaking for 8 hr at 37° C. for the LasR-GFP strain and 12 hr for the RhlR-GFP construct. 50 nM 3OC12-HSL or 20 μM C4-HSL was added to the LasR-GFP and RhlR-GFP preparations, respectively. Compounds were tested at 1 mM for antagonism and at 100 nM or 20 μM for agonism. These concentrations were chosen for agonism studies to match the concentrations of autoinducers used in the experiments. For antagonism studies, the EC95 concentration was used for each receptor. GFP was measured on an Envision plate reader.
(§2) The LasR-GFP assays were performed in E. coli strain BL21 DE3 Gold (Agilent) carrying pET23b (Novagen) containing lasR (maintained with 100 μg/mL ampicillin) and carrying plasmid pEVS141 (31) containing the rsaL promoter driving expression of gfp (maintained with 50 μg/mL of kanamycin.) The RhlR-GFP assays were performed in E. coli strain BL21 DE3 Gold (Agilent) carrying pET23b (Novagen) containing rhlR (maintained with 100 μg/mL ampicillin) and carrying plasmid pEVS141 (31) containing the rhlA promoter driving expression of gfp (maintained with 50 μg/mL of kanamycin.) These E. coli strains were grown overnight and subcultured into fresh medium with appropriate antibiotics at a 1:100 dilution and grown shaking for 8 hr at 37° C. for the LasR-GFP strain and 12 hr for the RhlR-GFP construct. 50 nM 3OC12-HSL or 20 μM C4-HSL was added to the LasR-GFP and RhlR-GFP preparations, respectively. Compounds were tested at 1 mM for antagonism and at 100 nM or 20 μM for agonism. These concentrations were chosen for agonism studies to match the concentrations of autoinducers used in our experiments. For antagonism studies, we used the EC95 concentration for each receptor. GFP was measured on an Envision plate reader.

[1] = tested on: A549 human lung cells infected with P. aeruginosa PA14; assay: A549 human lung cell infection (propidium iodide uptake); format: cell-based; details: wild-type and lasR mutant strains; 100 μM compound
Procedure: Methods. Human A549 cells were grown in CellStar tissue culture flasks. Prior to infection, the A549 cells were treated with trypsin-EDTA (CellGro), split, counted, and aliquotted into 96 well plates at 20,000 mammalian cells/well (cell counts were estimated using Trypan Blue (CellGro) exclusion). Cells were grown for 20 hr at 37° C. in DMEM (Invitrogen). Cells were washed 3× with warm PBS (Gibco). 100 μL of “master mix” was added to each well for each condition. Master mix contained 1 mL pre-warmed-PBS, 5 μL of 2 mg/mL propidium iodide (Bioprobes), 1 μL of a 100 mM inhibitor stock or DMSO, and 10 μL of OD600=2 P. aeruginosa PA14 grown in the presence of mBTL or DMSO. Infections were monitored using an EnVision plate reader every 2 hr with the RFP filter supplied by GE.

RhlR = target: T2, RhlR (Pseudomonas aeruginosa, UniProt P54292); assay: RhlR-GFP assay (rhlA-gfp reporter in recombinant E. coli); format: cell-based, P. aeruginosa
T2 construct: expressed in transfected cells; host or cells: E. coli BL21-Gold (DE3) carrying pET23b-rhlR
Procedure: as §1, §2

T2 sequence (P54292 whole entry): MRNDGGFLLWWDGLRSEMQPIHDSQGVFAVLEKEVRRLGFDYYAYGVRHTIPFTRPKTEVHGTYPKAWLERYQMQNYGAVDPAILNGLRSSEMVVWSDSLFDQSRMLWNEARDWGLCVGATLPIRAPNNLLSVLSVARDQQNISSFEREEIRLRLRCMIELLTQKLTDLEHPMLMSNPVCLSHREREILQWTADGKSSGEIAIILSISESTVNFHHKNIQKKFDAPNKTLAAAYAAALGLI
T1 sequence (P25084 whole entry): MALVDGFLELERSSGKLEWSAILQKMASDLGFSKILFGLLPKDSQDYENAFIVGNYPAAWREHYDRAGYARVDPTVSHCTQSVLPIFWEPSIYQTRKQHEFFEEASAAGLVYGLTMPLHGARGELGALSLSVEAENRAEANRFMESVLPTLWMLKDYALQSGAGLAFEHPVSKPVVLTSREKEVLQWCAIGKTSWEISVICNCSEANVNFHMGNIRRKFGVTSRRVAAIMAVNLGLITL

Substance: meta-bromothiolactone [mBTL]
- inhibition of LasR activation of rsaL-gfp (antagonism) (LasR; mBTL at 1 mM, 3OC12-HSL at EC95): 22%
- LasR partial agonism (gfp expression, cognate autoinducer = 100%) (LasR; no autoinducer, compound at 100 nM): 72%
- killing of A549 cells by P. aeruginosa [1]: reduces killing
- inhibition of RhlR activation of rhlA-gfp (antagonism) (RhlR; mBTL at 1 mM, C4-HSL at EC95 (20 μM)): 43%
- RhlR partial agonism (gfp expression, cognate autoinducer = 100%) (RhlR; no autoinducer, compound at 20 μM): 80%
